In ChEMBL document CHEMBL5108060, “Discovery, Characterization, and Structure-Based Optimization of Small-Molecule In Vitro and In Vivo Probes for Human DNA Polymerase Theta” (J Med Chem, 2022):
Converted amounts (≈) assume the structure as drawn. The source made the active and inactive calls. No cut-off for these calls is given here.

Tests used:
[1] = target: T1, DNA polymerase theta (Homo sapiens, UniProt O75417); assay: Inhibition of recombinant human full length DNA polymerase theta using DNA substrate measured after 1 hrs in presence of dNTPs by plate reader assay
[2] = Lipophilicity, logD of compound; assay type: physicochemical; conditions: octanol/water
[3] = Metabolic stability in mouse liver microsomes assessed as intrinsic clearance; assay type: ADME, Microsome; conditions: read-out: CLH
[4] = Inhibition of microhomology-mediated end joining in HEK293 cells; assay type: functional, cell-based, Homo sapiens
[5] = tested on: DLD-1; assay: Antiproliferative activity against human BRCA-2 deficient DLD-1 cells; assay type: functional, cell-based
[6] = tested on: DLD-1; assay: Antiproliferative activity against human DLD-1 cells; assay type: functional, cell-based
[7] = target: T1, DNA polymerase theta; assay: Displacement of tracer from recombinant Tb-labeled DNA polymerase theta (unknown origin) assessed as end point Kd using DNA as substrate preincubated for 30 mins followed by compound addition for 2 hrs by HTRF assay
[8] = target: T1, DNA polymerase theta; assay: Displacement of tracer from recombinant Tb-labeled DNA polymerase theta (unknown origin) using DNA as substrate preincubated for 30 mins followed by compound addition for 2 hrs by HTRF assay
[9] = Metabolic stability in human liver microsomes assessed as intrinsic clearance; assay type: ADME, Microsome; conditions: read-out: CLH
[10] = Metabolic stability in rat liver microsomes assessed as intrinsic clearance; assay type: ADME, Microsome; conditions: read-out: CLH
[11] = Thermodynamic solubility of the compound; assay type: physicochemical; conditions: read-out: Therm_solubility
[12] = target: T1, DNA polymerase theta; assay: Inhibition of human full length DNA polymerase theta ATPase activity by ADP-Glo assay
[13] = Clearance in mouse plasma at 3 mg/kg, iv; assay type: ADME, organism-based
[14] = Clearance in mouse plasma at 0.3 mg/kg, iv; assay type: ADME, organism-based
[15] = Half life in mouse at 3 mg/kg, iv; assay type: ADME, organism-based; conditions: in vivo
[16] = Volume of distribution at steady state in mouse at 3 mg/kg, iv; assay type: ADME, organism-based; conditions: in vivo, read-out: Vdss
[17] = Free maximum concentration of drug in mouse at 10 mg/kg, po; assay type: ADME, organism-based; conditions: in vivo
[18] = AUCinfinity in mouse at 10 mg/kg, po; assay type: ADME, organism-based; parameters: time infinity, dose 10 mg/kg, route po; conditions: in vivo
[19] = Oral bioavailability in mouse at 10 mg/kg; assay type: ADME, organism-based; conditions: in vivo
[20] = Clearance in rat plasma at 3 mg/kg, iv; assay type: ADME, organism-based
[21] = Half life in rat at 3 mg/kg, iv; assay type: ADME, organism-based; conditions: in vivo
[22] = Volume of distribution at steady state in rat at 3 mg/kg, iv; assay type: ADME, organism-based; conditions: in vivo, read-out: Vdss
[23] = Free maximum concentration of drug in rat at 10 mg/kg, po; assay type: ADME, organism-based; conditions: in vivo
[24] = AUCinfinity in rat at 10 mg/kg, po; assay type: ADME, organism-based; parameters: time infinity, dose 10 mg/kg, route po; conditions: in vivo
[25] = Oral bioavailability in rat at 10 mg/kg; assay type: ADME, organism-based; conditions: in vivo
[26] = Solubility of the compound; assay type: physicochemical
[27] = In vivo inhibition of DNA polymerase theta in mouse assessed as fold induction of micronuclei in reticulocytes at 150 mg/kg, po BID for 4 days by flow cytometry analysis; assay type: functional; conditions: time 4 day
[28] = tested on: Breast carcinoma cell; assay: Antitumor activity against BRCA1/SHLD2 knockout rat breast cancer xenograft model assessed as tumor growth inhibition at 100 mg/kg, po qd; assay type: functional, organism-based
[29] = Mutagenicity in Salmonella typhimurium LT2 TA98 in presence or absence of S9 fraction by Ames test; assay type: toxicity; conditions: salmonella enterica subsp. enterica serovar typhimurium
[30] = Mutagenicity in Salmonella typhimurium LT2 TA100 in presence or absence of S9 fraction by Ames test; assay type: toxicity; conditions: salmonella enterica subsp. enterica serovar typhimurium

T1 sequence (O75417 whole entry): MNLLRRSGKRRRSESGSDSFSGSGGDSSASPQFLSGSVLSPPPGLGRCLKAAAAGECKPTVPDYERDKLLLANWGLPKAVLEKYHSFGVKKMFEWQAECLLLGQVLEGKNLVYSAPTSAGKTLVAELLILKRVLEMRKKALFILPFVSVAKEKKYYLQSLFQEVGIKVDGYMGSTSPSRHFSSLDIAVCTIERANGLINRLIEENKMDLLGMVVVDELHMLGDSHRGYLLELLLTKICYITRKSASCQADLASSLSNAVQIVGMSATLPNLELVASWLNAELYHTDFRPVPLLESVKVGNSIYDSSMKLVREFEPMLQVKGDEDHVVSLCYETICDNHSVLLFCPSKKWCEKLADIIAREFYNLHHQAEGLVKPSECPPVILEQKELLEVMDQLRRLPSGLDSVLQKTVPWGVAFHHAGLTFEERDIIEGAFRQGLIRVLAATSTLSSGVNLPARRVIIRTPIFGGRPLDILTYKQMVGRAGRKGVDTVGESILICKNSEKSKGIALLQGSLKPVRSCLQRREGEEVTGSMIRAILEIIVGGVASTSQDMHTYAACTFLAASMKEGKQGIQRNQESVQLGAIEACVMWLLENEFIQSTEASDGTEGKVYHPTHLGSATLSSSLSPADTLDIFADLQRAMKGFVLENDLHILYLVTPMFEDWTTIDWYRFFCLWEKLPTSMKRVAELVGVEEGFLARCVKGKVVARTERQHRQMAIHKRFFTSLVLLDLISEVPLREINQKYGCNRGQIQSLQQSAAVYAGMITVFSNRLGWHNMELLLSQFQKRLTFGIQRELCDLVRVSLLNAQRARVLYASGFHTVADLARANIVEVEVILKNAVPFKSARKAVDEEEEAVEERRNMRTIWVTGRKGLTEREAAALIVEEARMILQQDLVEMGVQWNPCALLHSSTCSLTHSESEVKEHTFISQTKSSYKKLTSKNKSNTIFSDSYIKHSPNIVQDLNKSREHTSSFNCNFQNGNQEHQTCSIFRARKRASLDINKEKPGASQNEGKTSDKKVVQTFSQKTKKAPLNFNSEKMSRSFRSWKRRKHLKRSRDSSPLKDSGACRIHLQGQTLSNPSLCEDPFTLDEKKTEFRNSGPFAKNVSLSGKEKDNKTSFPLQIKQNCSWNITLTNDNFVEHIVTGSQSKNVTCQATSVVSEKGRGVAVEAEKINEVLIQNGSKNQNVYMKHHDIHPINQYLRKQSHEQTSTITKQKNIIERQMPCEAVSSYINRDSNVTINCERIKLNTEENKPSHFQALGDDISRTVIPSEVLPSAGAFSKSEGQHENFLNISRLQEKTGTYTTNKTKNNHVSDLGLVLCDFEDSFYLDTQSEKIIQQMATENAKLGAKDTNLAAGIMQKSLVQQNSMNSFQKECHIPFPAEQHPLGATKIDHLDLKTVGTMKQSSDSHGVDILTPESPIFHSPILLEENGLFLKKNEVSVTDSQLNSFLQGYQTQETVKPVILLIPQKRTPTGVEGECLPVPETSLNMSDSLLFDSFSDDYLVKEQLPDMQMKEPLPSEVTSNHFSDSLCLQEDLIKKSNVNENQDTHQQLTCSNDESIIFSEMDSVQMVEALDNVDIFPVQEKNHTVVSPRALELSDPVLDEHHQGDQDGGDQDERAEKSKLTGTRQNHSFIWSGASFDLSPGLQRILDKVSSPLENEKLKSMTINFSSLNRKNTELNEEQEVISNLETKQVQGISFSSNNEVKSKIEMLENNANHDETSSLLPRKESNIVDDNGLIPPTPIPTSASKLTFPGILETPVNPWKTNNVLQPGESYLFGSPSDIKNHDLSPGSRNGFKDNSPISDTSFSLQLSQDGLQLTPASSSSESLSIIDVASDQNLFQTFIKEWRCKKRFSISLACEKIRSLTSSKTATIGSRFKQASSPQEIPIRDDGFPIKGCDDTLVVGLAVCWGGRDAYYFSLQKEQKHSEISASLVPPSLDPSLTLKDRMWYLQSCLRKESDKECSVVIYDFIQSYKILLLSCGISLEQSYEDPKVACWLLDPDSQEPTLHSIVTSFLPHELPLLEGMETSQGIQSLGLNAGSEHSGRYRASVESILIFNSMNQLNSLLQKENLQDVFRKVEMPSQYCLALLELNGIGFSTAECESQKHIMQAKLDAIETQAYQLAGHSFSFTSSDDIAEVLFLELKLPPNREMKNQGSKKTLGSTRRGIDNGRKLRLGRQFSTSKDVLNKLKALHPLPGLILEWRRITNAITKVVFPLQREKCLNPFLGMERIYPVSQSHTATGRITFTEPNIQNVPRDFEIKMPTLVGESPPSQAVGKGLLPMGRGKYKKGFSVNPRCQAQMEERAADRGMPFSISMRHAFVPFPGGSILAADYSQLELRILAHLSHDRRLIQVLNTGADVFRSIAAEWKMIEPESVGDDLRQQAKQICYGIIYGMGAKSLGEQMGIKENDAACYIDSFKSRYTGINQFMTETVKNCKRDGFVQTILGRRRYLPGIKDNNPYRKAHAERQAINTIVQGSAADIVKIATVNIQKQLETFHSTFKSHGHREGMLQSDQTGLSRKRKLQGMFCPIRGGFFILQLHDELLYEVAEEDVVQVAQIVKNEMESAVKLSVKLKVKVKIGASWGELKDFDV

CCN(C(=O)COc1cc(C(F)(F)F)cc(C)n1)c1cccc(C)c1
IC50 [1]: 530 nM

CCN(C(=O)[C@H](C)Nc1nc(C)cc(C(C)C)c1C#N)c1cccc(C)c1
IC50 [1]: 49 nM

Cc1cccc(N(C)C(=O)[C@@H]2COC(=O)N2c2cc(C(F)(F)F)cc(C)n2)c1
logD [2]: 3.6
microsomal CLint [3]: 580 µL/min/mg

CCN(C(=O)[C@H](CO)Nc1nc(C)cc(C(F)(F)F)c1C#N)c1cccc(C)c1
IC50 [1]: 79 nM
logD [2]: 4
EC50 [4]: 255 nM
EC50 [5]: 11000 nM
EC50 [6]: > 12000 nM
Kd [7]: 35 nM

CCN(C(=O)COc1nc(C)cc(C(F)(F)F)c1C#N)c1cccc(C)c1
IC50 [1]: 500 nM
EC50 [4]: 680 nM
EC50 [5]: > 12000 nM
EC50 [6]: > 12000 nM
Kd [7]: 61 nM

CCN(C(=O)COc1nc(C)cc(C)c1C#N)c1cccc(C)c1
IC50 [1]: 4400 nM
EC50 [4]: 1840 nM
EC50 [5]: > 12000 nM
EC50 [6]: > 12000 nM
Kd [7]: 820 nM

CCN(C(=O)[C@H](C)Nc1nc(C)cc(C)c1C#N)c1cccc(C)c1
IC50 [1]: 230 nM

CCN(C(=O)[C@H](C)Nc1nc(C)cc(C(F)(F)F)c1C#N)c1cccc(C)c1
IC50 [1]: 29 nM

Cc1cc(C(F)(F)F)c(C#N)c(N2C[C@@H](O)C[C@H]2C(=O)N(C)c2ccccc2)n1
EC50 [4]: 400 nM
EC50 [5]: 8000 nM
EC50 [6]: > 12000 nM
Kd [7]: 110 nM

CCN(C(=O)[C@@H]1COCCN1c1nc(C)cc(C(F)(F)F)c1C#N)c1cccc(C)c1
IC50 [1]: 2700 nM

CCN(C(=O)CNc1nc(C)cc(C)c1C#N)c1cccc(C)c1
IC50 [1]: 1800 nM

Cc1cccc(N(C)C(=O)[C@@H]2C[C@H](O)CN2c2nc(C)cc(C)c2C#N)c1
Kd [8]: 19 nM
EC50 [4]: 280 nM
EC50 [5]: 4100 nM
EC50 [6]: > 12000 nM
Kd [7]: 51 nM

Cc1cccc(N(C)C(=O)[C@@H]2C[C@@H](O)CN2c2nc(C)cc(C(F)(F)F)c2C#N)c1
EC50 [4]: 315 nM
EC50 [5]: 6000 nM
EC50 [6]: > 12000 nM

Cc1cccc(N(C)C(=O)[C@@H]2C[C@H](O)CN2c2nc(C)cc(C(F)(F)F)c2C#N)c1
logD [2]: 3.6
EC50 [4]: 205 nM
EC50 [5]: 2300 nM
EC50 [6]: > 12000 nM

Cc1cc(C(F)(F)F)cc(N2C(=O)OC[C@H]2C(=O)N(C)c2cc(Cl)c(F)cc2F)n1
microsomal CLint [3]: 98 µL/min/mg

CCN(C(=O)[C@@H]1COC(=O)N1c1cc(C(F)(F)F)cc(C)n1)c1ccc(F)c(Cl)c1
logD [2]: 4
microsomal CLint [3]: 260 µL/min/mg

Cc1cc(C(F)(F)F)cc(N2C(=O)OC[C@H]2C(=O)N(C)c2ccc(F)c(C)c2F)n1
IC50 [1]: 4.1 nM
microsomal CLint [3]: 818 µL/min/mg

Cc1cc(C(F)(F)F)cc(N2C(=O)OC[C@H]2C(=O)N(C)c2cccc(Cl)c2F)n1
microsomal CLint [3]: 165 µL/min/mg

CCN(C(=O)COc1cc(C(C)C)cc(C)n1)c1cccc(C)c1
IC50 [1]: 400 nM

Cc1cccc(N(C)C(=O)[C@@H]2C[C@H](O)CN2c2nccc(C(F)(F)F)c2C#N)c1
EC50 [4]: 1030 nM
EC50 [5]: 11500 nM
EC50 [6]: > 12000 nM

Cc1cc(C(F)(F)F)cc(N2C(=O)OC[C@H]2C(=O)N(c2ccc(F)c(Cl)c2)C(C)C)n1
logD [2]: 4.4
microsomal CLint [3]: 48 µL/min/mg

CCN(C(=O)COc1cc(C)cc(C)n1)c1cccc(C)c1
IC50 [1]: 4200 nM

Cc1cc(C(F)(F)F)cc(N2C(=O)OC[C@H]2C(=O)N(C)c2cc(Cl)ccc2F)n1
microsomal CLint [3]: 157 µL/min/mg

CCN(C(=O)[C@@H]1[C@H](O)[C@H](O)C(=O)N1c1cc(C(F)(F)F)cc(C)n1)c1ccc(F)c(Cl)c1
EC50 [4]: 362 nM
EC50 [5]: 6900 nM
EC50 [6]: > 12000 nM
microsomal CLint [3]: 20 µL/min/mg
microsomal CLint [9]: < 10 µL/min/mg
microsomal CLint [10]: 30 µL/min/mg

CCN(C(=O)COc1nc(C)c(Br)c(C)c1C#N)c1cccc(C)c1
IC50 [1]: 1500 nM

Cc1cccc(N(C)C(=O)[C@@H]2[C@H](O)CCN2c2nc(C)cc(C(F)(F)F)c2C#N)c1
logD [2]: 3.5
Kd [8]: 4.8 nM
EC50 [4]: 180 nM
EC50 [5]: 800 nM
EC50 [6]: > 12000 nM
microsomal CLint [3]: > 1500 µL/min/mg
solubility thermodynamic [11]: 381 µM (≈ 159 µg/mL)
IC50 [12]: > 12000 nM
Kd [7]: 6.4 nM

Cc1cc(C(F)(F)F)cc(N2C(=O)[C@@H](O)[C@@H](O)[C@H]2C(=O)N(C)c2ccc(F)c(Cl)c2)n1
clearance [13]: 2.8 mL/min/kg
clearance [14]: 16.4 mL/min/kg
IC50 [1]: 7.6 nM
logD [2]: 3
EC50 [4]: 240 nM
EC50 [5]: 1100 nM
EC50 [6]: > 12000 nM
microsomal CLint [3]: 42 µL/min/mg
microsomal CLint [9]: 30 µL/min/mg
microsomal CLint [10]: 50 µL/min/mg
half-life [15]: 7 h
Vd [16]: 2.5 L/kg
fCmax [17]: 405 nM
AUC(0-inf) [18]: 54700 ng·h/mL
bioavailability [19]: 80%
clearance [20]: 35 mL/min/kg
half-life [21]: 1.3 h
Vd [22]: 2.9 L/kg
fCmax [23]: 79 nM
AUC(0-inf) [24]: 2750 ng·h/mL
bioavailability [25]: 57%
solubility [26]: 880 µM (≈ 406 µg/mL)
fold change (FC) [27]: 2
Activity [28]: Active
Activity [29]: Non-Toxic
Activity [30]: Non-Toxic

CCN(C(=O)COc1nc(C)c(Br)c(C(F)(F)F)c1C#N)c1cccc(C)c1
IC50 [1]: 400 nM

Cc1cccc(N(C)C(=O)[C@@H]2[C@@H](O)CCN2c2nc(C)cc(C(F)(F)F)c2C#N)c1
Kd [8]: 24 nM
EC50 [4]: 320 nM
EC50 [5]: 3000 nM
EC50 [6]: > 12000 nM
Kd [7]: 42 nM

Cc1cc(C(F)(F)F)cc(N2C(=O)OC[C@H]2C(=O)N(C)c2ccc(F)c(Cl)c2F)n1
IC50 [1]: 5.4 nM
microsomal CLint [3]: 210 µL/min/mg

Cc1cc(C(F)(F)F)cc(N2C(=O)OC[C@H]2C(=O)N(C)c2ccc(F)c(Cl)c2)n1
IC50 [1]: 15 nM
microsomal CLint [3]: 138 µL/min/mg

Cc1cc(C(F)(F)F)cc(N2C(=O)OC[C@H]2C(=O)N(C)c2ccc(F)c(C)c2)n1
IC50 [1]: 9.4 nM
microsomal CLint [3]: 404 µL/min/mg

Cc1cccc(N(C(=O)[C@@H]2CCCN2c2nc(C)cc(C(F)(F)F)c2C#N)C(C)C)c1
IC50 [1]: 8.8 nM

Cc1cc(C(F)(F)F)cc(N2C(=O)[C@@H](O)C[C@H]2C(=O)N(C)c2ccc(F)c(Cl)c2)n1
microsomal CLint [3]: 96 µL/min/mg
microsomal CLint [9]: 60 µL/min/mg

Cc1cc(C(F)(F)F)cc(N2C(=O)C[C@@H](O)[C@H]2C(=O)N(C)c2ccc(F)c(Cl)c2)n1
IC50 [1]: 5.9 nM
EC50 [4]: 255 nM
EC50 [5]: 2000 nM
EC50 [6]: > 12000 nM
microsomal CLint [3]: 260 µL/min/mg

CCN(C(=O)[C@@H]1CCCN1c1nc(C)cc(C)c1C#N)c1cccc(C)c1
IC50 [1]: 72 nM

CCN(C(=O)[C@@H](C)Nc1nc(C)cc(C(F)(F)F)c1C#N)c1cccc(C)c1
IC50 [1]: 5100 nM

CCN(C(=O)[C@@H]1C[C@H](O)C(=O)N1c1cc(C(F)(F)F)cc(C)n1)c1ccc(F)c(Cl)c1
microsomal CLint [3]: 181 µL/min/mg

Cc1cccc(N(C)C(=O)[C@@H]2CCC(=O)N2c2cc(C(F)(F)F)cc(C)n2)c1
IC50 [1]: 6.8 nM
logD [2]: 3.7
microsomal CLint [3]: > 1000 µL/min/mg

CCN(C(=O)COc1nc(C)c(Cl)c(C)c1C#N)c1cccc(C)c1
IC50 [1]: 630 nM

Cc1cc(C(F)(F)F)cc(N2C(=O)[C@H](O)[C@H](O)[C@@H]2C(=O)N(C)c2ccc(F)c(Cl)c2)n1
IC50 [1]: > 12000 nM
EC50 [5]: > 12000 nM
EC50 [6]: > 12000 nM

Cc1cc(C(F)(F)F)cc(N2C(=O)OC[C@H]2C(=O)N(C)c2cccc(Cl)c2)n1
microsomal CLint [3]: 410 µL/min/mg
